From PMC8286840, “Identifying SARS-CoV-2 antiviral compounds by screening for small molecule inhibitors of Nsp3 papain-like protease” (Biochemical Journal, 2021)
Structures can show the parent of a compound that is named as a salt. Where two headings read alike, the source gives them in different places. *1 amine or outer side, *2 acyl side, *3 side chain or, on linkers, in order; H or OH if unused. Where a SMILES comes first, the peptide text is derived from it. Bridges are numbered along the chain shown (N, C = ends). Roman numbers before positions name the chains, in order. [ ]: non-standard residue; d: D form. Actinocin(9to1) = Cc1c2oc3c(C)ccc(C(=O)[*:1])c3nc-2c(C(=O)[*:2])c(N)c1=O; NMeV = CN[C@H](C(=O)O)C(C)C; Sar = CNCC(=O)O

Experiments:
[1] = target: T1, SARS-CoV-2 PLpro (nsp3 1564–1878) (Severe acute respiratory syndrome coronavirus 2, UniProt P0DTD1); test: biochemical; design: FRET-quenched peptide (Pro3) cleavage by PLpro, 10 min pre-incubation, slope over 20 min, normalised to no-compound control; details: read-out: % of control remaining
[2] = target: T1, SARS-CoV-2 PLpro (nsp3 1564–1878); test: biochemical; design: FRET-quenched peptide (Pro3) cleavage by PLpro, 10 min pre-incubation, slope over 20 min, normalised to no-compound control; details: read-out: % of control remaining; remark: listed apart in the source

CO[C@H]1CC[C@@H](C(=O)c2ccc3nc4c(cc3c2)CCCO4)CC1 [JNJ16259685]
remaining activity at 1.25 µM ([1]; Well no.=6955, low concentration screen): 100% | remaining activity at 3.75 µM ([2]; Well no.=6955, high concentration screen): 102%

CC(N)=NCc1cccc(CN)c1 [1400W dihydrochloride]
remaining activity at 1.25 µM ([1]; Well no.=1434, low concentration screen): 88% | remaining activity at 3.75 µM ([2]; Well no.=1434, high concentration screen): 90.8%

COc1nccnc1NS(=O)(=O)c1cccc(Cl)c1Cl [AZD2098]
remaining activity at 1.25 µM ([1]; Well no.=8225, low concentration screen): 102% | remaining activity at 3.75 µM ([2]; Well no.=8225, high concentration screen): 98.6%

CN(C)C(=O)CCSC(SCCC(=O)O)c1cccc(/C=C/c2ccc3ccc(Cl)cc3n2)c1 (centres unmarked) [MK-571 (sodium salt)]
remaining activity at 1.25 µM ([1]; Well no.=7859, low concentration screen): 91.6% | remaining activity at 3.75 µM ([2]; Well no.=7859, high concentration screen): 91.2%

CNC(=C[N+](=O)[O-])NCCSCc1ccc(CN(C)C)o1 [Ranitidine.HCl]
remaining activity at 1.25 µM ([1]; Well no.=1642, low concentration screen): 105% | remaining activity at 3.75 µM ([2]; Well no.=1642, high concentration screen): 105%

COc1cc(Nc2ncc3ccn(-c4cccc(CCC#N)c4)c3n2)cc(OC)c1OC [Casein Kinase II Inhibitor IV]
remaining activity at 1.25 µM ([1]; Well no.=2381, low concentration screen): 104% | remaining activity at 3.75 µM ([2]; Well no.=2381, high concentration screen): 105%

CC(C)N(CCC(=O)c1ccc2ccccc2c1)Cc1ccccc1 [ZM39923 (hydrochloride)]
remaining activity at 1.25 µM ([1]; Well no.=8170, low concentration screen): 104% | remaining activity at 3.75 µM ([2]; Well no.=8170, high concentration screen): 98%

CCN1CCN(C(=O)Cc2ccc(Nc3ncc(F)c(Nc4ccc(C(=O)Nc5ccccc5Cl)cc4)n3)cc2)CC1 [Aurora A Inhibitor I]
remaining activity at 1.25 µM ([1]; Well no.=5241, low concentration screen): 95.1% | remaining activity at 3.75 µM ([2]; Well no.=5241, high concentration screen): 102%

CC(C)NCC(O)c1ccc(N)c(C#N)c1 (centres unmarked) [Cimaterol]
remaining activity at 1.25 µM ([1]; Well no.=1779, low concentration screen): 102% | remaining activity at 3.75 µM ([2]; Well no.=1779, high concentration screen): 99.7%

CCN(CC)CCNC(=O)c1ccc(N)cc1 [Procainamide.HCl]
remaining activity at 1.25 µM ([1]; Well no.=1645, low concentration screen): 108% | remaining activity at 3.75 µM ([2]; Well no.=1645, high concentration screen): 107%

CC(=O)OC/C=C(C)/C=C/C=C(C)/C=C/C1=C(C)CCCC1(C)C [Vitamin A acetate]
remaining activity at 1.25 µM ([1]; Well no.=1700, low concentration screen): 101% | remaining activity at 3.75 µM ([2]; Well no.=1700, high concentration screen): 97.8%

O=C1NC(=O)c2c1c1c3ccccc3[nH]c1c1[nH]c3ccccc3c21 [Arcyriaflavin A - 12,13-Dihydro-5H-indolo[2,3-a]pyrrolo[3,4-c]carbazole-5,7(6H)-dione]
remaining activity at 1.25 µM ([1]; Well no.=2532, low concentration screen): 102% | remaining activity at 3.75 µM ([2]; Well no.=2532, high concentration screen): 100%

Nc1c(/N=N/c2ccc(-c3ccc(/N=N/c4cc(S(=O)(=O)O)c5ccccc5c4N)cc3)cc2)cc(S(=O)(=O)O)c2ccccc12 [Congo Red]
remaining activity at 1.25 µM ([1]; Well no.=8614, low concentration screen): 101% | remaining activity at 3.75 µM ([2]; Well no.=8614, high concentration screen): 104%

CC1(C)[C@@H](O)C[C@H]2[C@](C)(O)[C@@H]3CC[C@@H]4[C@@H](O)[C@@]3(C[C@@H](O)[C@@]21O)C[C@@]4(C)O [Grayanotoxin III]
remaining activity at 1.25 µM [1]: 103% | remaining activity at 3.75 µM [2]: 104%

CC[C@H]1[C@@H]2C[C@H]3[C@@H]4N(C)c5ccccc5[C@]45C[C@@H]([C@H]2[C@H]5O)N3[C@@H]1O [Ajmaline]
remaining activity at 1.25 µM ([1]; Well no.=3437, low concentration screen): 98.9% | remaining activity at 3.75 µM ([2]; Well no.=3437, high concentration screen): 98.2%

O=C1NC(=O)C(c2ccccc2)(c2ccccc2)N1 [Phenytoin]
remaining activity at 1.25 µM ([1]; Well no.=1643, low concentration screen): 99.6% | remaining activity at 3.75 µM ([2]; Well no.=1643, high concentration screen): 100%

CCS(=O)(=O)CCn1c([N+](=O)[O-])cnc1C [Tinidazole]
remaining activity at 1.25 µM ([1]; Well no.=1958, low concentration screen): 93% | remaining activity at 3.75 µM ([2]; Well no.=1958, high concentration screen): 94.1%

CCNC1(C(N)=O)CCN(c2ncnc3c2nc(-c2ccccc2Cl)n3-c2ccc(Cl)cc2)CC1 [Otenabant]
remaining activity at 1.25 µM ([1]; Well no.=8393, low concentration screen): 93.1% | remaining activity at 3.75 µM ([2]; Well no.=8393, high concentration screen): 87.6%

CN(N=O)c1ccc(O)c(O)c1 [Me-3,4-dephostatin]
remaining activity at 1.25 µM ([1]; Well no.=1131, low concentration screen): 95.2% | remaining activity at 3.75 µM ([2]; Well no.=1131, high concentration screen): 91.3%

COc1cc(C(=O)O)ccc1NC(=O)[C@@H]1N[C@@H](CC(C)(C)C)[C@](C#N)(c2ccc(Cl)cc2F)[C@H]1c1cccc(Cl)c1F [Idasanutlin]
remaining activity at 1.25 µM ([1]; Well no.=7114, low concentration screen): 101% | remaining activity at 1.25 µM ([1]; Well no.=7554, low concentration screen): 92.9% | remaining activity at 3.75 µM ([2]; Well no.=7114, high concentration screen): 101% | remaining activity at 3.75 µM ([2]; Well no.=7554, high concentration screen): 93.9%

CC1(C)S[C@@H]2[C@H](NC(=O)[C@H](N)c3ccc(O)cc3)C(=O)N2[C@H]1C(=O)O [Amoxicillin (sodium)]
remaining activity at 1.25 µM ([1]; Well no.=8274, low concentration screen): 91.5% | remaining activity at 3.75 µM ([2]; Well no.=8274, high concentration screen): 89.9%

c1ccc(-c2cnc(Nc3ccc(OCCN4CCCC4)cc3)s2)cc1 [Flt-3 Inhibitor III]
remaining activity at 1.25 µM ([1]; Well no.=2421, low concentration screen): 99.3% | remaining activity at 3.75 µM ([2]; Well no.=2421, high concentration screen): 98.8%

Cc1cccc(C(C)c2c[nH]cn2)c1C (centres unmarked) [Medetomidine (hydrochloride)]
remaining activity at 1.25 µM ([1]; Well no.=7479, low concentration screen): 103% | remaining activity at 3.75 µM ([2]; Well no.=7479, high concentration screen): 99.7%

CCCCCCCCCCOCCC(=O)O [4-Oxatetradecanoic acid]
remaining activity at 1.25 µM ([1]; Well no.=4357, low concentration screen): 101% | remaining activity at 3.75 µM ([2]; Well no.=4357, high concentration screen): 107%

Cc1c(N)nc([C@H](CC(N)=O)NC[C@H](N)C(N)=O)nc1C(=O)N[C@H](C(=O)N[C@H](C)[C@@H](O)[C@H](C)C(=O)N[C@H](C(=O)NCCc1nc(-c2nc(C(=O)NCCC[S+](C)C)cs2)cs1)[C@@H](C)O)[C@@H](O[C@@H]1O[C@@H](CO)[C@@H](O)[C@H](O)[C@@H]1O[C@H]1O[C@H](CO)[C@@H](O)[C@H](OC(N)=O)[C@@H]1O)c1cnc[nH]1 [Bleomycin sulfate]
remaining activity at 1.25 µM ([1]; Well no.=3558, low concentration screen): 107% | remaining activity at 3.75 µM ([2]; Well no.=3558, high concentration screen): 107%

CN1CCN(c2ccc([N+](=O)[O-])c3no[n+]([O-])c23)CC1 [NSC-207895 (XI-006)]
remaining activity at 1.25 µM ([1]; Well no.=4647, low concentration screen): 101% | remaining activity at 3.75 µM ([2]; Well no.=4647, high concentration screen): 95.2%

CNC(=C[N+](=O)[O-])NCCSCc1ccc(CN(C)C)o1 [Ranitidine hydrochloride]
remaining activity at 1.25 µM ([1]; Well no.=1304, low concentration screen): 101% | remaining activity at 3.75 µM ([2]; Well no.=1304, high concentration screen): 101%

O=c1[nH]c2ccccc2n1CCN1CCN(c2cccc(C(F)(F)F)c2)CC1 [1-(2-{4-[3-(trifluoromethyl)phenyl]-1-piperazinyl}ethyl)-1,3-dihydro-2H-benzimidazol-2-one]
remaining activity at 1.25 µM ([1]; Well no.=5866, low concentration screen): 103% | remaining activity at 3.75 µM ([2]; Well no.=5866, high concentration screen): 97.9%

NC[C@H](CC(=O)O)c1ccc(Cl)cc1 [(R)-baclofen]
remaining activity at 1.25 µM ([1]; Well no.=5315, low concentration screen): 96.9% | remaining activity at 3.75 µM ([2]; Well no.=5315, high concentration screen): 93.5%

CCC1(C2=NCCN2)Cc2ccccc2O1 (centres unmarked) [Efaroxan hydrochloride]
remaining activity at 1.25 µM ([1]; Well no.=603, low concentration screen): 97.3% | remaining activity at 3.75 µM ([2]; Well no.=603, high concentration screen): 96.2%

CC(C(=O)O)c1ccc(CC2CCCC2=O)cc1 (centres unmarked) [loxoprofen]
remaining activity at 1.25 µM ([1]; Well no.=927, low concentration screen): 104% | remaining activity at 3.75 µM ([2]; Well no.=927, high concentration screen): 105%

Cc1c2oc3c(C)ccc(C(=O)N[C@@H]4C(=O)N[C@H](C(C)C)C(=O)N5CCC[C@H]5C(=O)N(C)CC(=O)N(C)[C@@H](C(C)C)C(=O)O[C@@H]4C)c3nc-2c(C(=O)N[C@@H]2C(=O)N[C@H](C(C)C)C(=O)N3CCC[C@H]3C(=O)N(C)CC(=O)N(C)[C@@H](C(C)C)C(=O)O[C@@H]2C)c(N)c1=O [Actinomycin D] (I: T[dV]P[Sar][NMeV] / II: T[dV]P[Sar][NMeV]; ester I:1-I:C, II:1-II:C; linker I:N-II:N via Actinocin(9to1))
remaining activity at 1.25 µM ([1]; Well no.=3075, low concentration screen): 103% | remaining activity at 3.75 µM ([2]; Well no.=3075, high concentration screen): 103%

CN1CC[C@@]23CCCC[C@@H]2[C@@H]1Cc1ccc(O)cc13 [Dextrorphan D-tartrate]
remaining activity at 1.25 µM ([1]; Well no.=592, low concentration screen): 101% | remaining activity at 3.75 µM ([2]; Well no.=592, high concentration screen): 103%
